Results as given in US11649246B2, “Salts of 4-amino-N-(l-((3-chloro-2-fluorophenyl)amino)-6-methylisoquinolin-5-yl)thieno[3,2-D]pyrimidine-7-carboxamide, and crystalline forms thereof” (Hanmi Pharm. Co., Ltd., priority 2017, dated 2023).
Like-named read-outs stand apart in the source and are kept apart here.

Experiments:
Assay type in all cases: physicochemical
[1] = Partition / distribution coefficient octanol-water (Sirius T3); details: octanol/water
Procedure: The partition coefficient, Log P, was measured with a T3 (Sirius Analytical Instrument Ltd., UK). About 1 mg of Formula (I) bis-hydrochloride was added to a 15 mL GLpKa beaker, dissolved with octanol/150 mM KCl, adjusted to pH 1.8 with 0.5 N HCl, and titrated up to pH 12.2 with 0.5 N KOH. The partition coefficient of the octanol-water system was determined by correcting the difference between titration curves of the blank from the titration curve, by inserting the value of the dissociation constant measured previously.

[2] = Dissociation constant (pKa), GLpKa method, Sirius T3; details: for pKa: MDM co-solvent solution (ISA Water/MeOH/ACN/p-Dioxane), 43% MDM solution
Procedure: Based on these pKa values, Formula (I) is believed to be weakly basic compound.
The dissociation, pKa, was measured with a T3 (Sirius Analytical Instrument Ltd., UK). About 1 mg of Formula (I) bis-hydrochloride was transferred to a GLpKa beaker, dissolved with 43% to 53% MDM solution (ISA Water/MeOH/ACN/p-Dioxane=40/20/20/20, Sirius), adjusted to pH 1.8 with 0.5 N HCl, and titrated up to pH 12.2 with 0.5 N KOH. The pKa as an aqueous solution was calculated by extrapolation.

[3] = Stress stability test at 60° C.
Procedure: In order to compare physicochemical stability among the crystalline form prepared in Example 3 (crystalline Formula (I) bis-hydrochloride Form I) and 16 (Formula (I) crystalline free base), and the amorphous form prepared in Comparative Example 1, a stress stability test was conducted by storing samples at 60° C., for different periods of time up to 4 weeks.

[4] = as an aqueous solution, calculated by extrapolation

Work on `Cc1ccc2c(Nc3cccc(Cl)c3F)nccc2c1NC(=O)c1csc2c(N)ncnc12` [Example 3, 4-amino-N-(1-((3-chloro-2-fluorophenyl)amino)-6-methylisoquinolin-5-yl)thieno[3,2-d]pyrimidine-7-carboxamide] yielded a logD ([1]; pH 1) of 0.02, a logD ([1]; pH 1.2) of 0.05 and a logD ([1]; pH 2) of 0.77. The logD ([1]; pH 3) was 2.64, the logD ([1]; pH 4) was 4.26 and the logD ([1]; pH 5) was 5.06. It also gave a logD ([1]; pH 6) of 5.22, a logD ([1]; pH 6.5) of 5.24 and a logD ([1]; pH 7) of 5.24. It also gave a logD ([1]; pH 8) of 5.24, a logD ([1]; pH 9) of 5.23 and a logD ([1]; pH 10) of 5.11. For the same compound, the logD ([1]; pH 11) was 4.71, the logD ([1]; pH 12) was 4.4 and the pKa ([2]; column 1, read-out: pKa (first value)) was 3.85. The pKa ([2]; column 1, read-out: pKa (second value)) was 4.71, the pKa ([2]; column 1, read-out: pKa (third value)) was 10.4 and the pKa ([2]; column 2, read-out: pKa (first value)) was 3.88. The pKa ([2]; column 2, read-out: pKa (second value)) was 4.7, the pKa ([2]; column 2, read-out: pKa (third value)) was 10.4 and the pKa ([2]; column 3, read-out: pKa (first value)) was 3.84. It also gave a pKa ([2]; column 3, read-out: pKa (second value)) of 4.69, a pKa ([2]; column 3, read-out: pKa (third value)) of 10.4 and a pKa1 [2, 4] of 3.86. The pKa2 [2, 4] was 4.73, the pKa3 ([2]; as an aqueous solution, calculated by extrapolation, listed as Formula (I) bis-hydrochloride Form I) was 10.3 and the “Purity(%) (A % by HPLC)” value ([3]; 2 weeks) was 99.8%. For the same compound, the “Total impurities(%) (A % by HPLC)” value ([3]; 2 weeks) was 0.16%, the “Purity(%) (A % by HPLC)” value ([3]; 4 weeks) was 99.8% and the “Total impurities(%) (A % by HPLC)” value ([3]; 4 weeks) was 0.23%. The “Purity(%) (A % by HPLC)” value ([3]; 1 day) was 99.8%, the “Total impurities(%) (A % by HPLC)” value ([3]; 1 day) was 0.17% and the “Purity(%) (A % by HPLC)” value ([3]; 3 days) was 99.8%. For the same compound, the “Total impurities(%) (A % by HPLC)” value ([3]; 3 days) was 0.15%, the “Purity(%) (A % by HPLC)” value ([3]; 7 days) was 99.8% and the “Total impurities(%) (A % by HPLC)” value ([3]; 7 days) was 0.19%. For the same compound, the “Purity(%) (A % by HPLC)” value ([3]; Initial) was 99.8%, the “Total impurities(%) (A % by HPLC)” value ([3]; Initial) was 0.17% and the “physicochemical stability (summary in words)” value ([3]; up to 4 weeks, listed as crystalline form (Form I) of the dihydrochloride) was “remarkably superior stability over the amorphous form”.
